{"source": "patent US20070270392A1", "about": "“Use of a Cyclopentenone Prostaglandin for Delaying the Onset and/or Preventing the Continuation of Labour” (Imperial College Innovations Limited, priority 2003, published 2007)", "key": {"NF-κB [1]": {"system": "NF-κB", "assay": "EMSA of NF-κB DNA binding in nuclear extracts of treated amnion cells", "type": "cell-based, human", "settings": "L− and L+ amnion cells, treated 2 h, IL-1β stimulation 15 min", "description": "Electro-mobility shift assay (EMSA) analysis of NF-κB DNA binding in nuclear protein extracts from (A) myometrial cells, (B) L+amnion cells, and (C) L− amnion cells treated with 15dPGJ2 or vehicle for 2 h+/−IL-1b stimulation (15 min). Consensus kB probe used to assess NF-κB DNA binding, and consensus Oct-1 probe used as control.\nEMSA analysis of nuclear protein extracts from amnion cells treated with 15dPGJ2+/−GW9662 or vehicle for 2 h followed by IL-1β stimulation (15 min). Consensus kB probe used to assess NFκB DNA binding, consensus Oct-1 probe used as control.\nEMSA analysis of nuclear protein extracts from (A) myometrial cells, and (B) amnion cells treated with PGA1 or vehicle for 2 h followed by IL-1b stimulation (15 min). Consensus κB probe used to assess NFκB DNA binding, consensus Oct-1 probe used as control. For supershift analysis, extracts were preincubated with antibodies against p50 or p65.\nEMSA analysis of nuclear protein extracts from (A) L− amnion cells and (B) myometrial cells treated with vehicle, PGE2 or IL-1β. Consensus κB probe used.\nPlacentae were obtained from patients at term either at elective Caesarean section prior to labour (L−) or following spontaneous labour onset and vaginal delivery (L+). Amnion cells were prepared as described in Bennett et al., (1989). Briefly, the amnion was separated from the placenta, washed 3× in PBS, cut into strips, and incubated in 0.51 mM EDTA in PBS for 15 min. The strips were washed in PBS 2× and digested with 2.5 mg/ml dispase in serum-free DMEM for 35 min at 37° C. The amnion was then shaken vigorously in DMEM, 10% FCS to dissociate the cells, the remaining strips discarded, and the cell suspension pelleted at 175 g for 10 min and cultured in DMEM, 10% FCS (Sigma), 1% L-glutamine, 1% penicillin-streptomycin.\n(§1) Nuclear and cytosolic protein extracts were obtained from cultured amnion cells as described by Schreiber et al (1989). For nuclear/cytosolic fractionation, confluent cell monolayers were scraped and lysed using a buffer containing 10 mM HEPES, 10 mM KCl, 0.1 mM EDTA, 0.1 mM EGTA, 2 mM DTT, 1% (v/v) NP-40 and complete protease inhibitor tablets (CPIs, Roche), diluted to manufacturer's instructions. Cell lysates were incubated on ice for 10 min and NP-40 added to a final concentration of 1% (v/v). Lysates were vortexed for 10 secs and centrifuged for 30 secs at 4° C., 12000 g. The supernatants were retained as the cytosolic protein extracts. The pellets were resuspended in buffer containing 10 mM HEPES, 10 mM KCl, 0.1 mM EDTA, 0.1 mM EGTA, 2 mM DTT, 400 mM NaCl, 1% NP-40 (v/v) and CPIs. Samples were shaken vigorously for 15 min in an ice bath. The nuclear protein extracts were obtained in the supernatant following a 5 min centrifugation at 4° C., 12000 g.\nSense and antisense strands (175 nmole/ml each) were incubated in annealing buffer (10 mM Tris-HCl pH7.5, 100 mM NaCl, 1 mM EDTA) for 10 min at 65° C., and allowed to cool at room temperature for 2 h. 3.5 pmole double-stranded oligonucleotides were end-labelled with 0.37 MBq ^32P(γATP) by incubating for 30 min at 37° C. with T4 polynucleotide kinase. Labelled oligonucleotides were recovered by centrifugation at […] for 2 min through MicroSpin G-25 or G-50 sephadex columns (Amersham Biosciences). […]"}, "NF-κB [2]": {"system": "NF-κB", "assay": "Western immunoblot of NF-κB activation (p65, p50, IκB) in myometrial cells", "type": "cell-based, human", "design": "Accumulation of phosphorylated IκBα: dose or concentration left out as unconfirmed", "description": "Western immunoblots of nuclear or cytosolic protein extracts from (A) myometrial cells, (B) L− amnion cells, and (C) L+amnion cells treated with 15dPGJ2 or vehicle for 2 h+/−IL-1, stimulation (15 min). Blots probed with antibodies against p65, p50 or IκBα.\nWestern immunoblot of nuclear or cytosolic protein extracts from myometrial cells treated with PGA1 or vehicle for 2 h followed by IL-1β stimulation (15 min). Blots probed with antibodies against p65 or IκBa.\nAnalysis of nuclear protein extracts from myometrial cells treated with PGE2 or vehicle for 2 h+/−TNFα or IL-1b stimulation (15 min). (A) EMSA using consensus κB probe. (B) Western immunoblot probing for nuclear p65.\nWestern immunoblots of cytosolic extracts from myometrial cells (A) treated with 15dPGJ2 for 2 h+/−IL1b for 15 min; probed for IKK, and (B) treated with […] 15dPGJ2, […] MG132 or vehicle for 2 h, +/−IL-1β for 15 min; probed for IκBα.\nMyometrial tissue was collected at term from the upper margin of uterine incision at the time of lower segment caesarean section either prior to the onset of labour (L−) or […] (L+). L+ samples were collected by Dr Mark Johnson and Dr S Soorrana at Chelsea & Westminster Hospital. Myometrial tissue was dissected, rinsed in PBS, and digested in serum-free DMEM containing 15 mg/ml collagenase 1A (Sigma), 15 mg/ml collagenase X, and 50 mg/ml bovine serum albumin for 45 min at 37° C. The cell suspension was filtered through a cell strainer, centrifuged at 400 g for 5 min, and the pellet re-suspended and plated out in DMEM, 10% FCS (Helena BioScience), 1% L-glutamine, 1% penicillin-streptomycin. Cells were used between passage numbers 1-4.\nas §1\nProtein samples (20-70 μg) were mixed with Laemmli sample buffer (1:1) containing β-mercaptoethanol (5%), and boiled for 5 min. Proteins were then separated by SDS-PAGE (12-14% gels) and transferred onto PVDF membrane (Amersham Pharmacia Biotech). The membranes were blocked overnight in 5% non-fat milk prepared in PBS-T buffer, at 4° C. The blots were incubated with the primary antibody in 1% non-fat milk in PBS-T buffer for 1 h, and washed three times (10 min each) in PBS-T with vigorous shaking. The blots were then incubated with HRP-conjugated secondary antibody (diluted 1:2000 in 1% non-fat milk in PBS-T buffer) for 1 h and washed three times (10 min each) in PBS-T. Signal detection was achieved using enhanced chemi-luminescence (ECL plus system, Amersham Pharmacia Biotech) according to manufacturer's instructions.\n30-50 μg protein extracts were subjected to SDS-PAGE and Western immuno-blotting. Secondary antibodies were IgG-HRP and ECL Plus detection kit (Amersham Pharmacia Biotech, Amersham Place, Little Chalfont, Bucks, HP7 9NA) was used for visualisation."}}, "data": [{"compound": "CCCCCC=CC=C1C(=O)C=C[C@@H]1CC=CCCCC(=O)O", "note": "[15d-PGJ2, 15-deoxy-Δ^12,14prostaglandin J2]", "values": [{"measurement": "IL-1β-induced NF-κB DNA binding", "setting": "NF-κB [1]", "value": "inhibited"}, {"measurement": "IL-1β-induced IκBα and IκBβ degradation", "setting": "NF-κB [2]", "value": "inhibition"}, {"measurement": "IL-1β-induced p50 phosphorylation", "setting": "NF-κB [2]", "value": "inhibited"}, {"measurement": "IL-1β-induced p65 nuclear translocation", "setting": "NF-κB [2]", "value": "inhibited"}, {"measurement": "Accumulation of phosphorylated IκBα", "setting": "NF-κB [2]; 2 h, IL-1β 15 min", "value": "not detected"}, {"measurement": "IκBα phosphorylation", "setting": "NF-κB [2]; cytosolic extracts", "value": "inhibits"}]}, {"compound": "CCCCC[C@H](O)/C=C/[C@H]1C=CC(=O)[C@@H]1CCCCCCC(=O)O", "note": "[PGA1, prostaglandin A1]", "values": [{"measurement": "IL-1β-induced NF-κB DNA binding", "setting": "NF-κB [1]", "value": "able to inhibit"}, {"measurement": "IL-1β-induced IκBα degradation", "setting": "NF-κB [2]", "value": "inhibited"}, {"measurement": "IL-1β-induced p65 nuclear translocation", "setting": "NF-κB [2]", "value": "inhibited"}]}]}
